Where two headings read alike, the source gives them in different places.
How the values were obtained:
rat cortical neurons = test: Effect of 2-BFI alone on neuronal excitability (current and membrane potential); type: cell-based; details: 3–1000 µM 2-BFI
Protocol: (§1) Primary cortical neurons were prepared from embryonic E18 Sprague-Dawley rats and cultured in neurobasal medium supplemented with B27 [24]. Briefly, cortices were explanted and cleaned free of meninges. The cortices were placed in D-Hanks’ solution and digested at 37°C with 0.05% trypsin-EDTA for 6 min. They were subsequently resuspended in DMEM medium supplemented with 20% fetal calf serum and 1% penicillin/streptomycin to stop digestion and were further dissociated into individual cells by trituration and plated on poly-D-lysine-coated glass coverslips in culture dishes at a density of 7×10^5 cells/ml. After the neurons had attached to the coverslips for 2 hrs, the medium was changed to neurobasal medium containing 2% B27 supplement. Neurons were incubated at 37°C in a humidified atmosphere of 5% CO2 for 7–8 days before electrophysiological experiments.
(§2) Whole-cell patch-clamp recordings were carried out at room temperature (22–25°C) using an Axopatch 700A patch-clamp amplifier (Axon Instruments, Inverurie, Scotland). Data acquisition was achieved using a DigiData 1322A with pClamp 9.0 software. The acquisition rate was 10 kHz and signals were filtered at 5 kHz. Patch electrodes were pulled with a Flaming/Brown micropipette puller (Sutter Instruments, Novato, CA) and fire-polished. […]

NMDA receptors = test: Whole-cell patch-clamp recording of NMDA-activated current in cultured cortical neurons; type: cell-based, rat; details: for EC50: n = 6–8
Protocol: as §1
Whole-cell patch-clamp recordings were carried out at room temperature (22–25°C) using an Axopatch 700A patch-clamp amplifier (Axon Instruments, Inverurie, Scotland). Data acquisition was achieved using a DigiData 1322A with pClamp 9.0 software. The acquisition rate was 10 kHz and signals were filtered at 5 kHz. Patch electrodes were pulled with a Flaming/Brown micropipette puller (Sutter Instruments, Novato, CA) and fire-polished. […] For the voltage-clamp recordings, the capacity transients were cancelled using the resistance capacitance circuit within the amplifier. After the formation of whole-cell configuration, access resistances were generally <15 MΩ. Series resistance compensation was set to 70%–90%. The liquid junction potential was approximately 2 mV and was auto-adjusted each time by pipette offset. To record NMDA/AMPA-activated currents, the external solution [(containing (mM): NaCl 150, KCl 5, CaCl2 0.2, glucose 10 and HEPES 10, pH adjusted to 7.4 with NaOH)] and the pipette solution [containing (mM): KCl 140, MgCl2 2.5, HEPES 10, EGTA 11, ATP 5, pH adjusted to 7.3 with KOH] were used. For voltage-clamp recordings, the membrane potential was held at −70 mV, unless noted otherwise. Drug solutions were prepared in extracellular solutions and applied to neurons by pressure using the 8-Channel Focal Perfusion System (ALA Scientific Instruments, Farmingdale, NY). Neurons were bathed constantly in extracellular solution between drug applications. Drug solution exchange was accomplished by electronic control.
Patch-clamp data was processed using Clampfit 9.0 (Axon Instruments) and then analyzed in Origin 7.5 (OriginLab, Northampton, MA). The dose-response curve was fitted to the logistic equation: y = (A1–A2)/[1+ (x/x0 )^p]+A2, where y is the response, A1 and A2 are the maximum and minimum response, respectively, x0 is the concentration corresponding to half-maximal effect, x is the drug concentration, and p is the Hill coefficient.
The onset and offset rates of 2-BFI were measured from the recordings by the binding kinetic protocol, where a single concentration of 2-BFI was applied in the constant presence of agonists. Tauon and Tauoff were obtained by a single exponential function fit: I = A×[1-exp(-t/τ)]+I 0, where I is the current, I 0 is the steady-state amplitude of the current, A is the difference between the peak and steady state current amplitudes, t is time, and τ is the time constant.

[1] = system: spectrin breakdown product (SBP); type: cell-based, rat; details: 2 h treatment with NMDA; Western blot
[2] = set-up: method as in PMID 9228188; details: cited from earlier work
[3] = biological target: [3H]2-BFI binding sites (I2-imidazoline receptors); set-up: method as in PMID 9228188; details: cerebral cortex; read-out: Ki for a single class of [3H]2-BFI binding sites; cited from earlier work
AMPA receptor = test: Whole-cell patch-clamp recording of AMPA-activated current in cultured cortical neurons; type: cell-based, rat; details: 200 µM 2-BFI; 100 µM AMPA; paired t-test P>0.05, n = 8
Protocol: as §1, §2

rodents = system: rodents; set-up: method as in PMID 19508825, PMID 20840843, PMID 22771326, PMID 19083996, PMID 21303658; details: previous animal studies; cited from earlier work
cortical neurons = test: Neuroprotection against NMDA excitotoxicity (nuclear staining, Alamar Blue viability); type: cell-based, rat; details: for number of condensed nuclei (NMDA-induced neuronal death): nuclear staining of cortical neurons treated with NMDA
Protocol: as §1
After 7 days-in-vitro, cortical neurons were treated with the specific inhibitor for 15 min prior to the addition of 100 µM glutamate or 200 µM NMDA at 37°C. The plates were then incubated for up to 24 h at 37°C in the presence or absence of inhibitors. Untreated cells were also included as controls. At the end of the treatment period, cells were either fixed for staining or subjected to a neuronal viability assay using Alamar Blue (Invitrogen). Stained cells were examined under a fluorescent microscope (Carl Zeiss, AX10 vert 200M), and digital images were taken and analyzed using Image J software (http://rsbweb.nih.gov/ij/). The viability of cortical neurons treated with NMDA, and with or without inhibitors as mentioned, was assayed using an Alamar Blue assay (Invitrogen). Briefly, a 1∶10 dilution of Alamar blue was added to cells for 1 h at 37°C. One third of the medium was removed and read in a 96-well plate using a plate reader with λEx = 530 nm and λEm = 590 nm. At minimum, a triplicate reading was obtained per experiment with three independent repeats.

[4] = system: transient cerebral ischemia; set-up: method as in PMID 19508825, PMID 20840843, PMID 22771326; details: rodent model of stroke; cited from earlier work
[5] = system: NMDA receptor-mediated [Ca2+]i influx; test: Ratiometric Fura-2 measurement of NMDA-evoked [Ca2+]i in cortical neurons; type: cell-based, mouse; details: for reversibility of block of NMDA receptor-mediated [Ca2+]i influx on removal of inhibitor: MK801 10 µM, 2-BFI 200 µM, memantine 10 µM, NMDA 100 µM, wash with PSS, n = 20 cells per treatment
Protocol: Ratiometric measurement of [Ca^2+]i was performed using Fura-2 AM [25]. Briefly, mouse cortical neurons at 7 days-in-vitro on glass coverslips were loaded with 5 µM Fura-2-AM (Molecular Probes, Eugene, CA) plus 0.02% pluronic (Life Technologies, INC, Burlington, ON, Canada) for 30 min at 37°C. After rinsing with PSS Mg^2+ free buffer containing 2 mM HEPES (pH 7.2), 140 mM NaCl, 5 mM KCl, 2.3 mM CaCl2, and 10 mM glucose, and stabilized in the same buffer for 5 min, Fura-2 intensities were measured using a Northern Eclipse Digital Ratio Image System (EMPIX, Mississauga, ON, Canada) with an Axiovert 200 camera and light source (Zeiss, Thornwood, NY). Fura-2 fluorescence was measured at 510 nm emission with 340/380 nm dual excitation selected by a DG-5 system (Sutter Instrument Company, Novato, CA). [Ca^2+]i concentration was represented by the ratio of florescence intensity between the two excitation wavelengths of R340/380 of Fura-2 after correction for background. R340/380 for 10 cells in one field of each coverslip was averaged. The basal level of [Ca^2+]i was recorded for 20 sec, followed by the application of inhibitors. […] [Ca^2+]i was recorded for 60–100 sec. After washing with PSS buffer for 300 sec, PSS buffer containing 45 mM KCl was added to neurons to record changes in [Ca^2+]i for 60 sec to show viability of neurons. All measurements were repeated for at least 3 times. The data was analyzed using Microsoft Excel and presented as the mean of three experiments.

NMDAR = details: read-out: IC50 of memantine; at −70 mV; ref not given; cited from earlier work

c1ccc2oc(C3=NCCN3)cc2c1 [2-BFI, 2-(2-benzofu-ranyl)-2-imidazoline]
effect of 2-BFI alone on membrane potential (rat cortical neurons): nor affected the membrane potential | current induced by 2-BFI alone (rat cortical neurons; −50 mV): neither induced any detectable current | average reversal potential of current activated by NMDA and glycine (NMDA receptors; 30 µM NMDA and 1 µM glycine in the presence of 200 µM 2-BFI, n = 6): 2.8±3.2 mV | IC50 (NMDA receptors; 30 µM NMDA plus 1 µM glycine, 2-BFI 10–2000 µM pre-applied 30 s, −70 mV, n = 6, read-out: IC50 for inhibition of NMDA-activated current): 124 ± 13.1 µM | slope factor of the concentration-response curve for inhibition of NMDA-activated current (NMDA receptors; 30 µM NMDA plus 1 µM glycine, −70 mV, n = 6): 1.2±0.1 | effect on Emax of NMDA and glycine (NMDA receptors; 200 µM 2-BFI): greatly reduced | inhibition of NMDA-induced currents (NMDA receptors; 200 µM 2-BFI, 30 µM NMDA plus 1 µM glycine, paired t-test P<0.001, n = 8): marked inhibition | voltage dependence of average inhibition of NMDA-activated current (NMDA receptors; 200 µM 2-BFI, membrane potentials from −60 mV to +60 mV, ANOVA P>0.05, n = 6): not significantly different | mode of NMDAR antagonism (NMDA receptors; EC50s and slope factors of NMDA and glycine unchanged by 200 µM 2-BFI): non-competitive antagonist | reversibility of inhibition of NMDA-activated current (NMDA receptors; after a few seconds of washing): fully reversible | Kd (NMDA receptors; from fitted kinetic values, read-out: Kd = Koff/Kon): 305.94 ± 0.3 µM | Koff (NMDA receptors; kinetic protocol, constant presence of 30 µM NMDA plus 1 µM glycine, single exponential fit): 0.67 ± 0.02 s⁻¹ | level of spectrin breakdown product (SBP) [1]: effectively reduced | crossing of the blood brain barrier [2]: able to cross the blood brain barrier | Ki [3]: 0.0098 µM | inhibition of AMPA-induced currents (AMPA receptor): did not inhibit | side effects of administration to rodents (rodents): no visible side effects | protection against NMDA toxicity, Alamar blue assay (cortical neurons; dose- and time-course, paired t-test P<0.01, n = 8): Dose-dependent neuroprotection | number of condensed nuclei (NMDA-induced neuronal death) (cortical neurons): reduced | neuroprotection against transient cerebral ischemia [4]: potently and dose-dependently neuroprotective | effect on NMDA-evoked [Ca2+]i influx ([5]; 10–1000 µM 2-BFI, 100 µM NMDA, n = 20 cells per dose point): significantly suppressed | reversibility of block of NMDA receptor-mediated [Ca2+]i influx on removal of inhibitor [5]: able to respond to NMDA (100 µM) almost immediately

c1ccc2c(c1)OCC(C1=NCCN1)O2 (stereo not shown) [Idazoxan]
crossing of the blood brain barrier [2]: readily cross the blood brain barrier | neuroprotection against transient cerebral ischemia [4]: potently and dose-dependently neuroprotective

C[C@]12N[C@H](Cc3ccccc31)c1ccccc12 [MK801]
level of spectrin breakdown product (SBP) [1]: effectively reduced | number of condensed nuclei (NMDA-induced neuronal death) (cortical neurons): reduced | reversibility of block of NMDA receptor-mediated [Ca2+]i influx on removal of inhibitor [5]: non-reversibly blocked

CN[C@H](CC(=O)O)C(=O)O [NMDA, N-methyl-D-aspartic acid]
slope factor of NMDA concentration-response curve (NMDA receptors; in the absence of 2-BFI, 1 µM glycine): 1.25±0.1 | EC50 (NMDA receptors; in the absence of 2-BFI, 1 µM glycine, read-out: EC50 of NMDA for current activation): 33.7 ± 4.3 µM | slope factor of NMDA concentration-response curve (NMDA receptors; in the presence of 200 µM 2-BFI, 1 µM glycine): 1.25±0.6

NCC(=O)O [glycine]
slope factor of glycine concentration-response curve (NMDA receptors; in the absence of 2-BFI, 30 µM NMDA): 0.39±0.2 | EC50 (NMDA receptors; in the absence of 2-BFI, 30 µM NMDA, read-out: EC50 of glycine for current activation): 1.52 ± 1.6 µM | slope factor of glycine concentration-response curve (NMDA receptors; in the presence of 200 µM 2-BFI, 30 µM NMDA): 0.58±0.6

CC12CC3CC(C)(C1)CC(N)(C3)C2 [memantine]
level of spectrin breakdown product (SBP) [1]: effectively reduced | number of condensed nuclei (NMDA-induced neuronal death) (cortical neurons): reduced | reversibility of block of NMDA receptor-mediated [Ca2+]i influx on removal of inhibitor [5]: able to respond to NMDA (100 µM) almost immediately | IC50 (NMDAR): 1.2 µM

Source: PMC3669129, “Fast, Non-Competitive and Reversible Inhibition of NMDA-Activated Currents by 2-BFI Confers Neuroprotection” (PLoS ONE, 2013)
